Results reported in patent US20190390170A1, “METHODS FOR MODULATING PRODUCTION PROFILES OF RECOMBINANT PROTEINS” (ARES TRADING S.A., priority 2016, published 2019).

Experiments:
[1] = tested on: CHO-S cells expressing a fusion protein P1; experiment: Fed-batch culture of P1 cells with valeric acid (viable cell density, viability, titer); format: cell-based, Chinese hamster
Protocol: Assays were performed with 2 CHO cell lines: • CHO-S cells expressing a fusion protein P1, herein “Cells P1” or “P1 cells”. “P1” is an IgG1 fusion protein, comprising one part directed against a membrane protein (IgG part) linked to a second part targeting a soluble immune protein. Its isoelectric point (pi) is about 6.3-7.0. • CHO-K1 cells expressing a monoclonal antibody P2, herein “Cells P2” or “P2 cells”. “P2” is a humanised monoclonal antibody directed against a receptor found on the cell membrane. Its isoelectric point (pi) is about 9.20-9.40. Cell expansion was performed in tubes in a medium suitable for cell expansion. Assays in fed-batch started after at least one week expansion. Cells expressing both P1 and P2 were inoculated at 0.2×10^6 viable cells per millilitre (mL). All assays were performed in fed-batch culture. The host cells were cultured in fed-batch system either in microplates (“Deep well plate”, “DWP”) or in Spin Tubes®, and incubated at 36.5° C., 90% relative humidity, 5% CO2 and 320 rpm shaking during 14 days. A stock solution of valeric acid was prepared in a standard production proprietary medium. The valeric acid concentration of this stock solution was 195 mM. The stock solution was used to supplement media to test different valeric acid concentrations from the beginning of the culture (day 0; tested concentrations: 1, 1.5 and 2 mM). The solution was also used like a feed to supplement the valeric acid to the culture at different time points during the fed-batch (day 3, 4, 5 or 7). When the solution was used like a feed, the target concentration in the culture was always 1.5 mM. Viable cell density and viability were measured with the Guava easyCyte® flow cytometer or with the ViCell. Antibody titres were measured with the fortéBIO Octet® or with Biacore C®.

[2] = tested on: CHO-K1 cells expressing a monoclonal antibody P2; experiment: Fed-batch culture of P2 cells with valeric acid (viable cell density, viability, titer); format: cell-based, Chinese hamster
Protocol: Assays were performed with 2 CHO cell lines: • CHO-S cells expressing a fusion protein P1, herein “Cells P1” or “P1 cells”. “P1” is an IgG1 fusion protein, comprising one part directed against a membrane protein (IgG part) linked to a second part targeting a soluble immune protein. Its isoelectric point (pi) is about 6.3-7.0. • CHO-K1 cells expressing a monoclonal antibody P2, herein “Cells P2” or “P2 cells”. “P2” is a humanised monoclonal antibody directed against a receptor found on the cell membrane. Its isoelectric point (pi) is about 9.20-9.40. Cell expansion was performed in tubes in a medium suitable for cell expansion. Assays in fed-batch started after at least one week expansion. Cells expressing both P1 and P2 were inoculated at 0.2×10^6 viable cells per millilitre (mL). All assays were performed in fed-batch culture. The host cells were cultured in fed-batch system either in microplates (“Deep well plate”, “DWP”) or in Spin Tubes®, and incubated at 36.5° C., 90% relative humidity, 5% CO2 and 320 rpm shaking during 14 days. A stock solution of valeric acid was prepared in a standard production proprietary medium. The valeric acid concentration of this stock solution was 195 mM. The stock solution was used to supplement media to test different valeric acid concentrations from the beginning of the culture (day 0; tested concentrations: 1, 1.5 and 2 mM). The solution was also used like a feed to supplement the valeric acid to the culture at different time points during the fed-batch (day 3, 4, 5 or 7). When the solution was used like a feed, the target concentration in the culture was always 1.5 mM. Viable cell density and viability were measured with the Guava easyCyte® flow cytometer or with the ViCell. Antibody titres were measured with the fortéBIO Octet® or with Biacore C®. In this experiment the addition of 1.5 mM valeric acid to the culture on day 03, 04 or 05 was tested. For this experiment a CHO-k1 cell line (P2 cells) was used to confirm that valeric acid has the same effect than on CHO-S cells (P1 cells as discussed in a.).

[3] = valeric acid in media on day 0 (1, 1.5 and 2 mM)
[4] = 1.5 mM valeric acid added day 03, 04 or 05, until day 12

Question: Which results are given for `CCCCC(=O)O` [valeric acid]?
Answer: viability of the culture compared to control ([1]; 1.5 mM valeric acid added as feed (day 3, 5 or 7), as of day 12): prolonged compared to the control runs; cell viability compared to control ([1]; 1.5 mM valeric acid added as feed (day 3, 5 or 7), until day 11): no impact on cell viability until day 11; increase of titer compared to control ([1]; 1.5 mM valeric acid added as feed at day 3, titer at day 12): about 20%; increase of titer compared to control ([1]; 1.5 mM valeric acid added as feed at day 5, titer at day 12): about 30%; increase of titer compared to control ([1]; 1.5 mM valeric acid added as feed at day 7, titer at day 12): about 20%; cell growth rate compared to control ([1]; 1.5 mM valeric acid added at day 3): slowed down; final titer [1, 3]: not improved; maximum viable cell density [1, 3]: The higher the concentration, the lower the maximum viable cell density; viability [1, 3]: maintained longer than for control experiment; impact on cell density and titer ([1]; valeric acid in the media on day 0): very negative impact on both cell density and titer; viability compared to control culture ([2]; 1.5 mM valeric acid added day 03, 04 or 05, starting day 13): prolonged compared to the control culture; cell viability compared to control [2, 4]: no impact on cell viability; titer compared to control [2, 4]: comparable to control; maximum viable cell density compared to control ([2]; 1.5 mM valeric acid added earlier during the culture (day 03, 04 or 05)): decreased; titer increase compared to control ([2]; 1.5 mM valeric acid at day 3, titer at day 17): about 25%; titer increase compared to control ([2]; 1.5 mM valeric acid at day 5, titer at day 17): about 35%; titer increase compared to control ([2]; 1.5 mM valeric acid at day 7 (so in the source), titer at day 17): about 25%; titer obtained ([2]; optimal valeric acid condition, after day 17 (data not shown), control 0.9 g/L): ~5 g/L
